Test [1] addresses T1, SSTR5 (Homo sapiens, UniProt P35346). As to the kind of experiment: Functional assay to assess the inhibition of SSTR5 mediated cyclic AMP production. The following applies: SSTR5 stable CHO cells, 5 μM FSK, Lance cAMP assay kit, eight-point titration. In kind it is cell-based, human or mouse. As for the experimental part: Functional Assay to Assess the Inhibition of SSTR5Mediated Cyclic AMP Production:
The effects of compounds that bind to human and murine SSTR5 with various affinities on the functional activity of the receptor were assessed by measuring cAMP production in the presence of Forskolin (FSK) alone or FSK plus SS-28 in SSTR5 expressing CHO cells. FSK acts to induce cAMP production in these cells by activating adenylate cyclases, whereas SS-28 suppresses cAMP production in the SSTR5 stable cells by binding to SSTR5 and the subsequent inhibition of adenylate cyclases via an alpha subunit of […] (Gαi).
To measure the agonism activity of the compounds, human or mouse SSTR5 stable CHO cells were pre-incubated with the compounds for 15 min, followed by a one-hour incubation of the cells with 5 μM FSK (in the continuous presence of the compounds). The amount of cAMP produced during the incubation was quantified with the Lance cAMP assay kit (PerkinElmer, CA) according to the manufacturer's instruction, as well as, an IC50 value was obtained by an eight-point titration.
Target sequence in this assay (P35346 whole entry): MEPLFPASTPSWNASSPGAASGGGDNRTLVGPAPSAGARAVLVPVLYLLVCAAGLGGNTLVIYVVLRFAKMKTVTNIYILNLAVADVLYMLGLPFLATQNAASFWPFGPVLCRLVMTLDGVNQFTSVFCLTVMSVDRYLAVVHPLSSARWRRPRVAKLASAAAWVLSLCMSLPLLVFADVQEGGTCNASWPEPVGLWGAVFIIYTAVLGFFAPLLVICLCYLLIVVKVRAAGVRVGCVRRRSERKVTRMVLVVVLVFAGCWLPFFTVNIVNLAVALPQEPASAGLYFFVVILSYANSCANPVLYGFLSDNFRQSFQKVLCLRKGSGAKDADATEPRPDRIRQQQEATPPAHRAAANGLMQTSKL

Test [2] has as its target T1, SSTR5. Briefly: SSTR5 binding (R5 Bnd).
Target sequence in this assay (P35346 whole entry, species assumed): as the sequence (P35346 whole entry) above

With `CCOc1cc(CN2CC[C@H]3C(NC(=O)c4cccc(C)c4)CC[C@H]32)cc(OCC)c1-c1ccc(F)cc1` (stereo in doubt) [Example 63], the concentration for half-maximal inhibition (IC50) is 32.6 nM in test [1] and 1.72 nM in test [2].
For `CCOc1cc(CN2CC[C@H]3C(NC(=O)c4cccc(C)c4)CC[C@H]32)cc(OCC)c1-c1ccc(F)cc1` (stereo in doubt) [Example 81], in that order: 70.1 nM and 5.01 nM.
In the case of `Cc1cncc(C(=O)N[C@H]2CC[C@@H]3[C@H]2CCN3Cc2cccc(-c3ccccc3)c2)c1` [Example 19], the IC50 was found to be 1220 nM in test [1] and 124 nM in test [2].
With `CCOc1cc(CN2CC[C@H]3C(NC(=O)c4ccc(C)nc4)CC[C@H]32)cc(OCC)c1-c1ccc(F)cc1` (stereo partly shown) [Example 60], the IC50 in test [1] was found to be 46.2 nM; in test [2], 5.45 nM.
Regarding `CCOc1cc(CN2CC[C@H]3C(NC(=O)c4cnc5cc(Cl)ccc5c4O)CC[C@H]32)cc(OCC)c1-c1ccc(F)cc1` (stereo partly shown) [Example 61], the half-inhibitory concentration (IC50) in test [1] stood at 122 nM; in test [2], 15.8 nM.
On to `CCOc1cc(CN2CC[C@H]3C(NC(=O)c4ccc5[nH]c(C)nc5c4)CC[C@H]32)cc(OCC)c1-c1ccc(F)cc1` (stereo partly shown) [Example 69], for which the concentration for half-maximal inhibition (IC50) in test [1] turned out to be 137 nM; in test [2] it was 53.5 nM.
For `CCOc1cc(CN2CC[C@H]3C(NC(=O)c4ccc5c(c4)nnn5C(C)C)CC[C@H]32)cc(OCC)c1-c1ccc(F)cc1` (stereo partly shown) [Example 72], in that order: 59.5 nM and 4.65 nM.
For `CCOc1cc(CN2CC[C@H]3C(NC(=O)c4cncnc4)CC[C@H]32)cc(OCC)c1-c1ccc(F)cc1` (stereo partly shown) [Example 75], in that order: 386 nM and 148 nM.
On to `CCOc1cc(CN2CC[C@H]3C(Nc4nc5ccc(C(=O)O)cc5o4)CC[C@H]32)cc(OCC)c1-c1ccc(F)cc1` (stereo partly shown) [Example 79], for which the IC50 is 5.21 nM in test [1] and 1.29 nM in test [2].
On to `CCOc1cc(CN2CC[C@H]3C(Nc4nc5ccc(F)cc5o4)CC[C@H]32)cc(OCC)c1-c1ccc(F)cc1` (stereo partly shown) [Example 83], for which the half-maximal inhibitory concentration (IC50) in test [1] stood at 252 nM; in test [2] it was 7.47 nM.
`CCOc1cc(CN2CC[C@H]3C(NC(=O)Nc4cccc(C)c4)CC[C@H]32)cc(OCC)c1-c1ccc(F)cc1` (stereo partly shown) [Example 90]: the IC50 amounted to 85.7 nM in test [1] and 4.99 nM in test [2].
For `CCOc1cc(CN2CC[C@H]3C(NC(=O)OCc4ccccc4)CC[C@H]32)cc(OCC)c1-c1ccc(F)cc1` (stereo partly shown) [Example 97], the IC50 in test [1] was 32.4 nM; in test [2], 1.44 nM.
For `CCOc1cc(CN2CC[C@H]3C(Nc4nc5cc(S(=O)(=O)/N=C/N(C)C)ccc5o4)CC[C@H]32)cc(OCC)c1-c1ccc(F)cc1` (stereo partly shown) [Example 100], in that order: 38.7 nM and 2.07 nM.
Regarding `CCOc1cc(CN2CC[C@H]3C(NS(=O)(=O)c4cccc(C)c4)CC[C@H]32)cc(OCC)c1-c1ccc(F)cc1` (stereo partly shown) [Example 101], the 50% inhibitory concentration (IC50) in test [1] is 263 nM; in test [2], 12.1 nM.

What is called IC50 is the concentration that inhibits the measured activity by half.

Source of the values: patent US8759539B2, “Substituted bicyclic amines for the treatment of diabetes” (Merck Sharp & Dohme Corp., priority 2008, dated 2014).
